Laboratory results taken from patent publication US12077503B2, “Substituted cyclic amides and their use as herbicides” (FMC CORPORATION, priority 2015, dated 2024).

Legend:
Type in all cases: in vivo
[1] = system: ducksalad (Heteranthera limosa); test: Test B flooded paddy test; conditions: Heteranthera limosa, 360 h, Flood, 250 g ai/ha; visually evaluated after 13 to 15 d; read-out: Plant response rating, Ducksalad (0 to 100 scale where 0 is no effect and 100 is complete control)
Outline: (§1)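 Evaluation by eye, against controls, occurred 13–15 d post-treatment in a greenhouse, using a 0 (no effect) to 100 (complete control) scale. Application was into the paddy water, 3 cm deep over the soil, on 2-leaf plants.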

[2] = system: rice (Oryra sativa); test: Test B flooded paddy test; conditions: Oryza sativa, 360 h, Flood, 250 g ai/ha; visually evaluated after 13 to 15 d; read-out: Plant response rating, Rice (0 to 100 scale where 0 is no effect and 100 is complete control)
Outline: as §1

[3] = system: sedge, umbrella (small-flower umbrella sedge, Cyperus difformis); test: Test B flooded paddy test; conditions: Cyperus difformis, 360 h, Flood, 250 g ai/ha; visually evaluated after 13 to 15 d; read-out: Plant response rating, Sedge, Umbrella (0 to 100 scale where 0 is no effect and 100 is complete control)
Outline: as §1

[4] = system: barnyardgrass (Echinochloa crus-galli); test: Test B flooded paddy test; conditions: Echinochloa crus-galli, 360 h, Flood, 250 g ai/ha; visually evaluated after 13 to 15 d; read-out: Plant response rating, Barnyardgrass (0 to 100 scale where 0 is no effect and 100 is complete control)
Outline: as §1

[5] = system: blackgrass (Alopecurus myosuroides); test: Test A postemergence; conditions: Alopecurus myosuroides, post-emergence, 240 h, Postemergence, read-out: Blackgrass plant response rating (0 to 100 scale)
Outline: (§2)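 Preemergence directed soil spray on seeded pots, or postemergence application to plants 2–10 cm, one- to two-leaf. Solvent mixture non-phytotoxic, with surfactant. Scored ~10 d later, visually, 0–100 vs untreated.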

[6] = system: ryegrass, Italian (Italian ryegrass, Lolium multiflorum); test: Test A postemergence; conditions: Lolium multiflorum, post-emergence, 240 h, Postemergence, read-out: Ryegrass, Italian plant response rating (0 to 100 scale)
Outline: as §2

[7] = system: wheat (Triticum aestivum); test: Test A postemergence; conditions: Triticum aestivum, post-emergence, 240 h, Postemergence, read-out: Wheat plant response rating (0 to 100 scale)
Outline: as §2

[8] = system: ragweed (common ragweed, Ambrosia elatior); test: Test A postemergence; conditions: Ambrosia artemisiifolia, post-emergence, 240 h, Postemergence, read-out: Ragweed plant response rating (0 to 100 scale)
Outline: as §2

[9] = system: Galium (catchweed bedstraw, Galium aparine); test: Test A postemergence; conditions: Galium, post-emergence, 240 h, Postemergence, read-out: Galium plant response rating (0 to 100 scale)
Outline: as §2

[10] = system: corn (Zea mays); test: Test A postemergence; conditions: Zea mays, post-emergence, 240 h, Postemergence, read-out: Corn plant response rating (0 to 100 scale)
Outline: as §2

[11] = system: pigweed (Amaranthus retroflexus); test: Test A postemergence; conditions: Amaranthus retroflexus, post-emergence, 240 h, Postemergence, read-out: Pigweed plant response rating (0 to 100 scale)
Outline: as §2

[12] = system: giant foxtail (Setaria faberii); test: Test A postemergence; conditions: Setaria faberi, post-emergence, 240 h, Postemergence, read-out: Foxtail, Giant plant response rating (0 to 100 scale)
Outline: as §2

[13] = system: barnyardgrass (Echinochloa crus-galli); test: Test A postemergence; conditions: Echinochloa crus-galli, post-emergence, 240 h, Postemergence
Outline: as §2

[14] = system: Kochia (Kochia scoparia); test: Test A postemergence; conditions: Bassia scoparia, post-emergence, 240 h, Postemergence, read-out: Kochia plant response rating (0 to 100 scale)
Outline: as §2

[15] = system: ryegrass, Italian (Italian ryegrass, Lolium multiflorum); test: Test A preemergence; conditions: Lolium multiflorum, pre-emergence, 240 h, Preemergence
Outline: as §2

[16] = system: ragweed (common ragweed, Ambrosia elatior); test: Test A preemergence; conditions: Ambrosia artemisiifolia, pre-emergence, 240 h, Preemergence
Outline: as §2

[17] = system: pigweed (Amaranthus retroflexus); test: Test A preemergence; conditions: Amaranthus retroflexus, pre-emergence, 240 h, Preemergence
[18] = system: giant foxtail (Setaria faberii); test: Test A preemergence; conditions: Setaria faberi, pre-emergence, 240 h, Preemergence
Outline: as §2

[19] = system: barnyardgrass (Echinochloa crus-galli); test: Test A preemergence; conditions: Echinochloa crus-galli, pre-emergence, 240 h, Preemergence
Outline: as §2

[20] = system: Kochia (Kochia scoparia); test: Test A preemergence; conditions: Bassia scoparia, pre-emergence, 240 h, Preemergence
Outline: as §2

[21] = 125 g ai/ha, visual rating about 10 d after treatment
[22] = 31 g ai/ha, 0 is no effect, 100 is complete control

Compound: CN1C[C@H](c2ccc3c(c2)OC(F)(F)O3)[C@@H](C(=O)Nc2cnccc2C(F)(F)F)C1=O [Compound 1354]
- pest or weed control at 250 g/ha [1]: 0%
- pest or weed control at 250 g/ha [2]: 0%
- pest or weed control at 250 g/ha [3]: 0%
- pest or weed control at 250 g/ha [4]: 0%
- pest or weed control at 125 g/ha [5, 21]: 0%
- pest or weed control at 31 g/ha [5, 22]: 0%
- pest or weed control at 125 g/ha [6, 21]: 0%
- pest or weed control at 31 g/ha [6, 22]: 0%
- plant injury at 125 g/ha [7, 21]: 0%
- plant injury at 31 g/ha [7, 22]: 0%
- pest or weed control at 125 g/ha [8, 21]: 0%
- pest or weed control at 31 g/ha [8, 22]: 0%
- pest or weed control at 125 g/ha [9, 21]: 40%
- pest or weed control at 31 g/ha [9, 22]: 20%
- plant injury at 125 g/ha [10, 21]: 0%
- plant injury at 31 g/ha [10, 22]: 0%
- pest or weed control at 125 g/ha [11, 21]: 0%
- pest or weed control at 31 g/ha [11, 22]: 0%
- pest or weed control at 125 g/ha [12, 21]: 60%
- pest or weed control at 31 g/ha [12, 22]: 0%
- pest or weed control at 125 g/ha ([13]; 125 g ai/ha, visual rating about 10 d after treatment, read-out: Barnyardgrass plant response rating (0 to 100 scale, 0 no effect, 100 complete control)): 20%
- pest or weed control at 31 g/ha ([13]; 31 g ai/ha, 0 is no effect, 100 is complete control, read-out: Barnyardgrass plant response rating (0 to 100 scale)): 0%
- pest or weed control at 125 g/ha [14, 21]: 20%
- pest or weed control at 31 g/ha [14, 22]: 0%
- pest or weed control at 31 g/ha ([15]; 31 g ai/ha, 0 to 100 scale where 0 is no effect and 100 is complete control, read-out: Ryegrass, Italian plant response rating): 0%
- pest or weed control at 125 g/ha ([15]; 125 g ai/ha, 0 to 100 scale (0 no effect, 100 complete control), read-out: Plant response rating, Ryegrass, Italian): 20%
- pest or weed control at 31 g/ha ([16]; 31 g ai/ha, 0 to 100 scale where 0 is no effect and 100 is complete control, read-out: Ragweed plant response rating): 20%
- pest or weed control at 125 g/ha ([16]; 125 g ai/ha, 0 to 100 scale (0 no effect, 100 complete control), read-out: Plant response rating, Ragweed): 0%
- pest or weed control at 31 g/ha ([17]; 31 g ai/ha, 0 to 100 scale where 0 is no effect and 100 is complete control, read-out: Pigweed plant response rating): 0%
- pest or weed control at 125 g/ha ([17]; 125 g ai/ha, 0 to 100 scale (0 no effect, 100 complete control), read-out: Plant response rating, Pigweed): 20%
- pest or weed control at 31 g/ha ([18]; 31 g ai/ha, 0 to 100 scale where 0 is no effect and 100 is complete control, read-out: Foxtail, Giant plant response rating): 30%
- pest or weed control at 125 g/ha ([18]; 125 g ai/ha, 0 to 100 scale (0 no effect, 100 complete control), read-out: Plant response rating, Foxtail, Giant): 100%
- pest or weed control at 31 g/ha ([19]; 31 g ai/ha, 0 to 100 scale where 0 is no effect and 100 is complete control, read-out: Barnyardgrass plant response rating): 0%
- pest or weed control at 125 g/ha ([19]; 125 g ai/ha, 0 to 100 scale (0 no effect, 100 complete control), read-out: Plant response rating, Barnyardgrass): 80%
- pest or weed control at 31 g/ha ([20]; 31 g ai/ha, 0 to 100 scale where 0 is no effect and 100 is complete control, read-out: Kochia plant response rating): 0%
- pest or weed control at 125 g/ha ([20]; 125 g ai/ha, 0 to 100 scale (0 no effect, 100 complete control), read-out: Plant response rating, Kochia): 20%
